According to doi:10.1101/538157v1 (biorxiv, 2019):

Biological target: T1, CAMKK2-KD (kinase domain of CAMKK2) (Homo sapiens, UniProt Q96RR4)
Experiment: isothermal titration calorimetry
Assay type: binding
Details: not given

T1 sequence (Q96RR4 161-449): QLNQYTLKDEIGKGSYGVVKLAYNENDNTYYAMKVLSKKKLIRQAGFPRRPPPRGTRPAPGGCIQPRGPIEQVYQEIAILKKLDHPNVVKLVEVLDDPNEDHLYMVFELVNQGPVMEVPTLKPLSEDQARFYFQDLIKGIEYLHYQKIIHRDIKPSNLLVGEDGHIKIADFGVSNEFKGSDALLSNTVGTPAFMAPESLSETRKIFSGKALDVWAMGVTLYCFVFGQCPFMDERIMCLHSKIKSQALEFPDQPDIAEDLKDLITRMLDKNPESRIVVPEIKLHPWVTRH

`COc1cc(N2CCC(N(C)C)CC2)ccc1Nc1ncc(Cl)c(Nc2ccccc2P(C)(C)=O)n1` [ALK-IN-1] and `CC[C@@H]1C(=O)N(C)c2cnc(Nc3ccc(C(=O)N[C@H]4CC[C@H](N5CCN(CC6CC6)CC5)CC4)cc3OC)nc2N1C(C)C` [BI 6727] are within 1.5-fold of each other in Kd: 5.8 nM for the first, 8.1 nM for the second.

Biological target: T1, CAMKK2-KD (kinase domain of CAMKK2)
Experiment: biochemical
Details: read-out: ΔTm (°C) 96-well

Compared with `Cn1cc(/C=C2\C(=O)Nc3ccc(S(N)(=O)=O)cc32)c2ccccc21` [Syk Inhibitor], `c1ccc(-c2cnc(Nc3ccc(OCCN4CCCC4)cc3)s2)cc1` [Flt3 Inhibitor III] is lower in ΔTm at 12 µM: 9.4 °C for the first, 7.5 °C for the second.

Going from `CC(C)(C)c1nc2c3cc[nH]c(=O)c3c3cc(F)ccc3c2[nH]1` [JAK Inhibitor I] to `COc1cc2c(Nc3cc(Cl)c(OC)c(Cl)c3)c(C#N)cnc2cc1OCCCN1CCN(C)CC1` [Bosutinib isomer], the ΔTm at 12 µM falls from 4.7 °C to 4.1 °C.
